Converted amounts (≈) assume the structure as drawn.

The source of these data is ChEMBL document CHEMBL4813920, “Metronidazole-conjugates: A comprehensive review of recent developments towards synthesis and medicinal perspective” (Eur J Med Chem, 2021).

Data set [1] relates to Bacillus spizizenii. The data set can be described thus: Antibacterial activity against Bacillus subtilis ATCC 6633 by MH media dilution method. The class given is functional.
For data set [2], the system named is Pseudomonas aeruginosa. Briefly: Antibacterial activity against Pseudomonas aeruginosa ATCC 13525 by MH media dilution method. The class given is functional.
Data set [3] relates to Staphylococcus aureus. Briefly: Antibacterial activity against Staphylococcus aureus ATCC 6538 by MH media dilution method. The class given is functional.
Data set [4] deals with Escherichia coli. Briefly: Antibacterial activity against Escherichia coli ATCC 35218 by MH media dilution method. Type of data set: functional.
Data set [5] in a line: Inhibition of Staphylococcus aureus TyrRS using L-tyrosine and tRNA as substrate preincubated for 10 mins followed by substrate addition by liquid scintillation counting method.
In the next data set the test system is Entamoeba histolytica. The data set can be described thus: Antiamoebic activity against Entamoeba histolytica HM-1:IMSS trophozoites measured after 72 hrs by microdilution method. Type of data set: functional, organism-based. (In general: Broth dilution looks for growth in wells or tubes with falling amounts of substance.)
For data set [6], the target named is Telomerase reverse transcriptase (Homo sapiens, UniProt O14746). Briefly: Inhibition of telomerase in human SGC-7901 cell extract by TRAP assay.
The test system of data set [7] is HeLa. Briefly: Antiproliferative activity against human Hela cells incubated for 24 to 48 hrs by CCK8 assay. Type of data set: functional, cell-based.
A further data set relates to U-251. The data set can be described thus: Antiproliferative activity against human U-251 cells incubated for 24 to 48 hrs by CCK8 assay. The class given is functional, cell-based.
In data set [8] the test system is A549. The data set can be described thus: Antiproliferative activity against human A549 cells incubated for 24 to 48 hrs by CCK8 assay. Type of data set: functional, cell-based. (Tetrazolium assays rely on reduction of a dye to a coloured formazan, in cell work by metabolically active cells.)
Data set [9] deals with HepG2. The data set can be described thus: Antiproliferative activity against human HepG2 cells incubated for 24 to 48 hrs by CCK8 assay. Type of data set: functional, cell-based.
The test system of the next data set is B16-F10. Briefly: Antiproliferative activity against mouse B16-F10 cells incubated for 24 to 48 hrs by MTT assay. The class given is functional, cell-based.
For the next data set, the system named is MDA-MB-231. Briefly: Antiproliferative activity against human MDA-MB-231 cells after 24 hrs by MTT assay. The settings on record: MDA-MB-231, 24 h. The class given is functional, cell-based.
The subject of a further data set is HEK293. The data set can be described thus: Cytotoxicity against HEK293 cells after 24 hrs by MTT assay. Type of data set: cell-based. The settings on record: Homo sapiens, HEK293, 24 h.
In data set [10] the test system is MCF7. Briefly: cells. The settings on record: Homo sapiens, MCF7, 24 h.
The nature of data set [11]: Acute oral toxicity in mouse assessed as behavioral changes measured once daily for 14 days. The settings on record: in vivo, time 14 day.
The nature of data set [12]: Inhibition of Escherichia coli N-terminal His-tagged FabH expressed in Escherichia coli BL21(DE3) by liquid scintillation counting method.
The subject of data set [13] is Staphylococcus aureus. The data set can be described thus: Antibacterial activity against Staphylococcus aureus ATCC 6538 incubated for 24 hrs by two fold serial dilution method. The class given is functional.
Data set [14] deals with Pseudomonas aeruginosa. Briefly: Antibacterial activity against Pseudomonas aeruginosa ATCC 13525 incubated for 24 hrs by two fold serial dilution method. Type of data set: functional.
Data set [15] is described as follows: Acute oral toxicity in mouse assessed as signs of gross toxicity measured once daily for 14 days. The settings on record: in vivo, time 14 day.
The nature of data set [16]: Acute oral toxicity in mouse assessed as induction of mortality measured once daily for 14 days. The settings on record: in vivo, time 14 day.
Data set [17] relates to Escherichia coli. Briefly: Antibacterial activity against Escherichia coli ATCC 35218 incubated for 24 hrs by two fold serial dilution method. Type of data set: functional.
Data set [18] concerns Bacillus spizizenii. Briefly: Antibacterial activity against Bacillus subtilis ATCC 6633 incubated for 24 hrs by two fold serial dilution method. Type of data set: functional.
Data set [19] relates to Helicobacter pylori. Briefly: Antibacterial activity against Helicobacter pylori P12 incubated for 48 hrs by MTT assay. The class given is functional, organism-based.
For a further data set, the system named is Clostridium perfringens. The data set can be described thus: Antibacterial activity against Clostridium perfringens ATCC 13124 incubated for 48 hrs under anaerobic condition by MTT assay. The class given is functional.
Data set [20] deals with Helicobacter pylori. The data set can be described thus: Antibacterial activity against Helicobacter pylori ATCC 26695 incubated for 48 hrs by MTT assay. The class given is functional, organism-based.
Data set [21] relates to Helicobacter pylori. Briefly: Antimicrobial activity against Helicobacter pylori SS1 clinical isolate2 for 3 days by agar dilution method. The settings on record: SS1 clinical isolate2, 72 h, time 3 day. Type of data set: functional. (In general: In agar dilution, organisms are placed on agar that contains the substance at set levels.)
The subject of data set [22] is Helicobacter pylori. Briefly: Antimicrobial activity against Helicobacter pylori SS1 incubated for 3 days by agar dilution method. Type of data set: functional. The settings on record: SS1, 72 h, time 3 day.
In data set [23] the test system is Helicobacter pylori. Briefly: Antimicrobial activity against Helicobacter pylori ATCC 43504 incubated for 3 days by agar dilution method. Type of data set: functional. The settings on record: NCTC 11637 = CCUG 17874 = ATCC 43504, 72 h, time 3 day.
For data set [24], the system named is Helicobacter pylori. Briefly: Antimicrobial activity against Helicobacter pylori clinical isolate1 for 3 days by agar dilution method. Type of data set: functional. The settings on record: clinical isolate1, 72 h, time 3 day.
For data set [25], the system named is Helicobacter pylori. The data set can be described thus: Antimicrobial activity against Helicobacter pylori clinical isolate4 for 3 days by agar dilution method. The class given is functional. The settings on record: clinical isolate4, 72 h, time 3 day.
Data set [26] has as its system Helicobacter pylori. The data set can be described thus: Antimicrobial activity against Helicobacter pylori clinical isolate3 for 3 days by agar dilution method. Type of data set: functional. The settings on record: clinical isolate3, 72 h, time 3 day.
Data set [27] relates to HeLa. Briefly: cells. The settings on record: Homo sapiens, 48 h.
Data set [28] deals with A549. Briefly: cells. The settings on record: Homo sapiens, A549, 48 h.
Data set [29] concerns HepG2. The data set can be described thus: cells. The settings on record: Homo sapiens, HepG2, 48 h.
Data set [30] concerns MCF7. Briefly: cells. The settings on record: Homo sapiens, MCF7, 48 h.
In the next data set the test system is Candida parapsilosis. Briefly: Antimicrobial activity against Candida parapsilosis ATCC 22019. The class given is functional. The settings on record: Lodderomyces parapsilosis.
A further data set deals with Candida albicans. The data set can be described thus: Antimicrobial activity against Candida albicans ATCC 90023. The class given is functional.
Data set [31] deals with Pseudomonas aeruginosa. Briefly: Antibacterial activity against Pseudomonas aeruginosa ATCC 27853 by microbroth dilution method. The class given is functional.
In another data set the test system is Enterococcus faecalis. The data set can be described thus: Antibacterial activity against Enterococcus faecalis by microbroth dilution method. Type of data set: functional.
Data set [32] deals with Escherichia coli. The data set can be described thus: Antibacterial activity against Escherichia coli by microbroth dilution method. The class given is functional.
The next data set deals with Acinetobacter baumannii. Briefly: Antibacterial activity against Acinetobacter baumannii by microbroth dilution method. The class given is functional.

Chain of Telomerase reverse transcriptase (O14746 whole entry): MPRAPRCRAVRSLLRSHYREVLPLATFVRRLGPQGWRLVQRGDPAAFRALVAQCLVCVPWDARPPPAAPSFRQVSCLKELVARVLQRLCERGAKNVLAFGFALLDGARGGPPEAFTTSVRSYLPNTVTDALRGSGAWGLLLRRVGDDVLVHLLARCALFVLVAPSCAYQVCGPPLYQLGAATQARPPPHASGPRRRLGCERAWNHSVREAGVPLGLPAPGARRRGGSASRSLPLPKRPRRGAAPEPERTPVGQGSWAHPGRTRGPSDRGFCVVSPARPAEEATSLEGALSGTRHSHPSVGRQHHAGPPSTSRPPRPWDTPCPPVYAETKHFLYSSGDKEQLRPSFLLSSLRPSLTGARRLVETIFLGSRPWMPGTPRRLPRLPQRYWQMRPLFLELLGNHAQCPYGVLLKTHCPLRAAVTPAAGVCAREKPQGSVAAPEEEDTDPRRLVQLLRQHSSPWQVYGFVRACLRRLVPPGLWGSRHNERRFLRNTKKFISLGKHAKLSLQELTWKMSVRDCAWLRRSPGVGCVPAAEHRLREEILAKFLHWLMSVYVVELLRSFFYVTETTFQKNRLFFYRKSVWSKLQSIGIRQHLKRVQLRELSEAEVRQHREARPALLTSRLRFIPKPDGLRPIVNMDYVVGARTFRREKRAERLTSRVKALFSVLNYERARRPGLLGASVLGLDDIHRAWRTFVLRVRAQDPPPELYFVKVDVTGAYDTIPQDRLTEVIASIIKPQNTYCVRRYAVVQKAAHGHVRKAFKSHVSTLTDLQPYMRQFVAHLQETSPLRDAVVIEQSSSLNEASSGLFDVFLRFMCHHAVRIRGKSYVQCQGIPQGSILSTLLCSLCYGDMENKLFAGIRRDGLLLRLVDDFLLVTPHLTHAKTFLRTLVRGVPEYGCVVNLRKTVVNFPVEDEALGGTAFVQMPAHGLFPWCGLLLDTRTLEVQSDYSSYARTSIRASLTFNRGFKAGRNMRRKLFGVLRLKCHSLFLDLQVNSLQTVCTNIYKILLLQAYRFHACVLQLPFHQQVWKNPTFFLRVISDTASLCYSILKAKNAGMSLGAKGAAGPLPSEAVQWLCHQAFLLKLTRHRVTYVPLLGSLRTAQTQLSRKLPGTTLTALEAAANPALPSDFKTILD

A word on the MIC: it is the lowest concentration that inhibits growth of the organism. Take `COc1ccc(-c2cc(C(=O)OCCn3c([N+](=O)[O-])cnc3C)nn2-c2ccccc2)cc1`: the minimum inhibitory concentration (MIC) was 3.91 µg/mL (≈ 8.74 µM) in the data set with Bacillus spizizenii [1], 0.98 µg/mL (≈ 2.19 µM) in the data set on Pseudomonas aeruginosa [2], 3.91 µg/mL (≈ 8.74 µM) against Staphylococcus aureus [3] and 1.96 µg/mL (≈ 4.38 µM) against Escherichia coli [4]. This molecule came in with an IC50 in data set [5] of 0.92 µM.
With `Cc1ncc([N+](=O)[O-])n1CCOC(=O)Nc1ccc(OS(=O)(=O)c2ccc(C(F)(F)F)cc2)cc1`, in the data set with Entamoeba histolytica, the IC50 amounted to 0.24 µM.
Take `O=C(OCCn1c([N+](=O)[O-])cnc1/C=C/c1ccc2ccccc2c1)c1nccc2ccccc12`: the IC50 was found to be 0.98 µM in data set [6]; 0.05 µM in the data set on HeLa [7]; 0.32 µM in the data set on U-251; 0.11 µM with A549 [8]; 0.1 µM with HepG2 [9].
In turn, `Cc1ccnc(NS(=O)(=O)c2ccc(/N=C\c3ccc(OCCn4c([N+](=O)[O-])cnc4C)cc3)cc2)n1` registered an IC50 in the data set on B16-F10 of 0.22 µM.
As for `Cc1ncc([N+](=O)[O-])n1Cc1cn(CCCCCN2C(=O)C(=O)c3cc(F)ccc32)nn1`, the values for the IC50 in the data set with MDA-MB-231, in the data set with HEK293 and in the data set on MCF7 [10] were 56.2 µM, > 100 µM and 70.7 µM, respectively.
In general, LD50 refers to the dose expected to kill half of the subjects tested. Consider `Cc1ccnc(NS(=O)(=O)c2ccc(/N=C/c3ccc(C(=O)OCCn4c([N+](=O)[O-])cnc4C)cc3)cc2)n1`, for which the LD50 at 336 h in data set [11], in data set [15] and in data set [16] was > 5000 mg/kg in each case. In [12], this molecule returned an IC50 of 5.59 µM. In addition, the minimal inhibitory concentration (MIC) against Staphylococcus aureus [13] came out at 12.5 µg/mL (≈ 22.7 µM); in the data set on Pseudomonas aeruginosa [14], 12.5 µg/mL (≈ 22.7 µM); in the data set with Escherichia coli [17], 3.13 µg/mL (≈ 5.7 µM); against Bacillus spizizenii [18], 6.25 µg/mL (≈ 11.4 µM).
For `Cc1ccc(C(C)C)cc1OC(=O)Cn1c([N+](=O)[O-])cnc1C`, the figures for the IC50 in the data set with Helicobacter pylori [19] and in the data set with Helicobacter pylori [20] were 35.17 uM/ml and 52.35 uM/ml, respectively. Inhibition of growth with Clostridium perfringens (MIC) required 0.0094 µM (≈ 0.00298 µg/mL).
Consider `Cc1cc(C)nc(NS(=O)(=O)c2ccc(/N=C/c3ccc(C(=O)OCCn4c([N+](=O)[O-])cnc4C)cc3)cc2)n1`, for which the 50% lethal dose (LD50) at 336 h in [11], in [15] and in data set [16] was > 5000 mg/kg in each case. This molecule came in with an IC50 in data set [12] of 2.69 µM. Moreover, the MIC with Staphylococcus aureus [13] was found to be 3.13 µg/mL (≈ 5.55 µM); with Pseudomonas aeruginosa [14], 3.13 µg/mL (≈ 5.55 µM); against Escherichia coli [17], 1.56 µg/mL (≈ 2.77 µM); against Bacillus spizizenii [18], 1.56 µg/mL (≈ 2.77 µM).
`Cc1ncc([N+](=O)[O-])n1CCOc1ccc(C(=O)Cc2ccc([N+](=O)[O-])cc2)c(O)c1O`: the minimal inhibitory concentration (MIC) in the data set on Helicobacter pylori [21] came to 0.88 µM (≈ 0.389 µg/mL); against Helicobacter pylori [22] it was 1.76 µM (≈ 0.779 µg/mL); in the data set with Helicobacter pylori [23], 1.76 µM (≈ 0.779 µg/mL); in the data set with Helicobacter pylori [24], 1.76 µM (≈ 0.779 µg/mL); in the data set with Helicobacter pylori [25], 1.76 µM (≈ 0.779 µg/mL); in the data set on Helicobacter pylori [26], 1.76 µM (≈ 0.779 µg/mL).
On to `CC1(C)S[C@@H]2[C@H](NC(=O)[C@H](N)c3ccc(O)cc3)C(=O)N2[C@H]1C(=O)O` [AMOXICILLIN], for which the MIC in the data set on Helicobacter pylori [21] stood at 1.07 µM (≈ 0.391 µg/mL); against Helicobacter pylori [22] it was 0.14 µM (≈ 0.0512 µg/mL); in the data set with Helicobacter pylori [23], 0.14 µM (≈ 0.0512 µg/mL); against Helicobacter pylori [24], 1.07 µM (≈ 0.391 µg/mL); against Helicobacter pylori [25] it was 1.07 µM (≈ 0.391 µg/mL); in the data set on Helicobacter pylori [26], 1.07 µM (≈ 0.391 µg/mL).
As for `COc1cc2c(c(OC)c1OC)-c1ccc(OC)c(=O)cc1[C@@H](NC(C)=O)CC2` [COLCHICINE], the IC50 with HeLa [27] stood at 0.055 µM; in the data set on A549 [28], 0.037 µM; with HepG2 [29], 0.045 µM; in the data set with MCF7 [30], 0.038 µM.
For `OC(Cn1cncn1)(Cn1cncn1)c1ccc(F)cc1F` [FLUCONAZOLE], the MIC in the data set with Candida parapsilosis and in the data set on Candida albicans was 156 µM (≈ 47.8 µg/mL) throughout.
Turning to `CCn1cc(C(=O)O)c(=O)c2cc(F)c(N3CCNCC3)cc21` [NORFLOXACIN], the MIC against Pseudomonas aeruginosa [31] is 1600 µM (≈ 513 µg/mL); with Enterococcus faecalis it was 803 µM (≈ 256 µg/mL); in the data set on Escherichia coli [32], 1600 µM (≈ 513 µg/mL); with Acinetobacter baumannii, 803 µM (≈ 256 µg/mL).
